In ChEMBL document CHEMBL5291721, “A preclinical secondary pharmacology resource illuminates target-adverse drug reaction associations of marketed drugs” (Nat Commun, 2023):
“And” between values parts separate entries of the source, which are not always exact repeats. Equal entries are not always repeated.

Experiments:
[1] = target: T1, Muscarinic acetylcholine receptor M2 (Homo sapiens, UniProt P08172); type: functional, cell-based
T1 sequence (P08172 whole entry): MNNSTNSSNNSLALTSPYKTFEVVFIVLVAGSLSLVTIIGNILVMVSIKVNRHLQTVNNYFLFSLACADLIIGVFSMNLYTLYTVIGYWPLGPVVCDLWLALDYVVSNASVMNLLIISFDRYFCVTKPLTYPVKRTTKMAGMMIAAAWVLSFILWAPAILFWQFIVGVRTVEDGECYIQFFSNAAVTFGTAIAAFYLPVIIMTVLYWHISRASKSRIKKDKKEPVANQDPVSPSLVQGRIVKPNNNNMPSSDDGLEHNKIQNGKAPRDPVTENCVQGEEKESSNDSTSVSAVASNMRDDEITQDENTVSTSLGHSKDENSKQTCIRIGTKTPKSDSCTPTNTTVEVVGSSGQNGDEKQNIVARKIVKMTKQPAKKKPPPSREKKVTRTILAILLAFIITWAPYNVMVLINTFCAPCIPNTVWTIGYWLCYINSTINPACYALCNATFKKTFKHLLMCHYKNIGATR

Motilin receptor = Motilin receptor (Homo sapiens, UniProt O43193)
[2] = target: T2, Prostaglandin G/H synthase 1 (Rattus norvegicus, UniProt Q63921); type: functional
T2 sequence (Q63921 whole entry): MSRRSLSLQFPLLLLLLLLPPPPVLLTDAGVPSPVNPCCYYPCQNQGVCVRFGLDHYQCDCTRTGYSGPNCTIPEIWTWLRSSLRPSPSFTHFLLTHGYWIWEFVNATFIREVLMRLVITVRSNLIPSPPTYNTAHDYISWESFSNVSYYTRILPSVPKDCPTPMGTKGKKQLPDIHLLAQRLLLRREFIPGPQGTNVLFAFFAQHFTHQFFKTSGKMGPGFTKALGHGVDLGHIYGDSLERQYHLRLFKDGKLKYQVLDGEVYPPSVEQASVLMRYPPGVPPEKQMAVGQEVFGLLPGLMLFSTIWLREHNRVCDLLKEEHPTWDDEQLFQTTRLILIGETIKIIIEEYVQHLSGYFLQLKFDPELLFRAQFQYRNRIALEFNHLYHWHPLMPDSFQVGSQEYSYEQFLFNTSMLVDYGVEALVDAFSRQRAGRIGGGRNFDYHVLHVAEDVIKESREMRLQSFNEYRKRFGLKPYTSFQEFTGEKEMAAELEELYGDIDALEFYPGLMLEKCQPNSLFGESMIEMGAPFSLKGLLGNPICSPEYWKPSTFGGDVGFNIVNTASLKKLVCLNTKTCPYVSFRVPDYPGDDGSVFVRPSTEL

[3] = target: Sodium-dependent noradrenaline transporter (Homo sapiens, UniProt P23975)
[4] = target: Glutamate receptor ionotropic, NMDA 1 (Rattus norvegicus, UniProt P35439)
[5] = target: T3, Neuropeptide Y receptor type 1 (Homo sapiens, UniProt P25929); details: read-out: AC50
T3 sequence (P25929 whole entry): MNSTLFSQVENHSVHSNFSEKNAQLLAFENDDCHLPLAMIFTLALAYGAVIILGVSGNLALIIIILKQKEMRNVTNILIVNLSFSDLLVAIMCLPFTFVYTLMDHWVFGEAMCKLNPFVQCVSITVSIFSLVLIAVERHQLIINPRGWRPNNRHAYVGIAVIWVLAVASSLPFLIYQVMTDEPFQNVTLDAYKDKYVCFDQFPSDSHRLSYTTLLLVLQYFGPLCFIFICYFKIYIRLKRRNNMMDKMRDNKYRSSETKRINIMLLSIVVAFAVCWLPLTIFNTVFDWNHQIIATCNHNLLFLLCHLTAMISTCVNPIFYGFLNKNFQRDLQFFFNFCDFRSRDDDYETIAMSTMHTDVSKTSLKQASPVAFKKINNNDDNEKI

[6] = target: Delta-type opioid receptor (Homo sapiens, UniProt P41143)
[7] = target: T4, Equilibrative nucleoside transporter 1 (Homo sapiens, UniProt Q99808)
T4 sequence (Q99808 whole entry): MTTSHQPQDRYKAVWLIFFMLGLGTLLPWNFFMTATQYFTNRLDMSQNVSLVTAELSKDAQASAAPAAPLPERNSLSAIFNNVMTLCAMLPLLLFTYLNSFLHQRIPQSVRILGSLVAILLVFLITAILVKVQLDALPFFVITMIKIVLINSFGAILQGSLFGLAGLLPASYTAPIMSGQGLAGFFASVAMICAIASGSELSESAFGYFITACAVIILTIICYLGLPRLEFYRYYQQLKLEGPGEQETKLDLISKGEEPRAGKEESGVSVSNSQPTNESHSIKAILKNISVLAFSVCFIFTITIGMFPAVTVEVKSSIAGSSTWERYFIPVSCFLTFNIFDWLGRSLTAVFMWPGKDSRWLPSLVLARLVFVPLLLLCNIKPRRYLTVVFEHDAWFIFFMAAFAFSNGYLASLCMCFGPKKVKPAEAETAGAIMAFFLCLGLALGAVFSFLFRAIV

Thromboxane A2 receptor = target: T5, Thromboxane A2 receptor (Homo sapiens, UniProt P21731)
T5 sequence (P21731 whole entry): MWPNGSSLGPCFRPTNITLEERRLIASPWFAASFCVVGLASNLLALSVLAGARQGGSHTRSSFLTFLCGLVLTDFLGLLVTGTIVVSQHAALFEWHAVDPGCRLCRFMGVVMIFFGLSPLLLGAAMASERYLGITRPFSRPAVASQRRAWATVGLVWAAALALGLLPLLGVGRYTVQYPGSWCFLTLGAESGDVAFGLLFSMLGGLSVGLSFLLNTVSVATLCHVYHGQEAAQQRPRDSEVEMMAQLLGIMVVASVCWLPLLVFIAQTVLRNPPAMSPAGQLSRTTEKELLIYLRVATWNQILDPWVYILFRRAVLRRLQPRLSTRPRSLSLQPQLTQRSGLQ

[8] = target: Sodium-dependent dopamine transporter (Homo sapiens, UniProt Q01959)
[9] = target: T6, Type-1 angiotensin II receptor (Homo sapiens, UniProt P30556)
T6 sequence (P30556 whole entry): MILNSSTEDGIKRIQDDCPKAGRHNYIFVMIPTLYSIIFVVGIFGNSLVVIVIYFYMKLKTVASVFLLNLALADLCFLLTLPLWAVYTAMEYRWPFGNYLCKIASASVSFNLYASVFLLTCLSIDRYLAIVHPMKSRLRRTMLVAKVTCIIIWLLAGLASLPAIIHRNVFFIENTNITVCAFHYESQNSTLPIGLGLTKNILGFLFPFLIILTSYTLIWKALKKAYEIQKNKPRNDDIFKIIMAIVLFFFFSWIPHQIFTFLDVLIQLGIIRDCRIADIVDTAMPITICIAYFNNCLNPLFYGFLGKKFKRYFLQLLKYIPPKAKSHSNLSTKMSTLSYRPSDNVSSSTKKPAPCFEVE
Also: assay procedure not described here.

Sodium-dependent dopamine transporter, sequence (Q01959 whole entry): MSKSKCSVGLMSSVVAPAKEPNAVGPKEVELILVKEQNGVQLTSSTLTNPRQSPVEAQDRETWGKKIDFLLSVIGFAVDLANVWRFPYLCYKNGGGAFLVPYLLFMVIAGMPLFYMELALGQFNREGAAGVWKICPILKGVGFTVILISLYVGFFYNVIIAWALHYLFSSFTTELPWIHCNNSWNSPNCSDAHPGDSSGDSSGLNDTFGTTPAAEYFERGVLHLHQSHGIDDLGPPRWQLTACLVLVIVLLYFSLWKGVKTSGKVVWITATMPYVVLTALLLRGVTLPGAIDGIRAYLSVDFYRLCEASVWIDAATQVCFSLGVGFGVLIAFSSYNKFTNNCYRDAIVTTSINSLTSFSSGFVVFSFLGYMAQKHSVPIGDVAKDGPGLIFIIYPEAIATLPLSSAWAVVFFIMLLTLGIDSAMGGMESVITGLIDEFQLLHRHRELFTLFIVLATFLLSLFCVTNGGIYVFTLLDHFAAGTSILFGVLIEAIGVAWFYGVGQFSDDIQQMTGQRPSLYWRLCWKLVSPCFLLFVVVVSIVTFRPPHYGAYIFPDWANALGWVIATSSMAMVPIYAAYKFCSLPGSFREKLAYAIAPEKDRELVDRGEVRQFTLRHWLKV
Sodium-dependent noradrenaline transporter, sequence (P23975 whole entry): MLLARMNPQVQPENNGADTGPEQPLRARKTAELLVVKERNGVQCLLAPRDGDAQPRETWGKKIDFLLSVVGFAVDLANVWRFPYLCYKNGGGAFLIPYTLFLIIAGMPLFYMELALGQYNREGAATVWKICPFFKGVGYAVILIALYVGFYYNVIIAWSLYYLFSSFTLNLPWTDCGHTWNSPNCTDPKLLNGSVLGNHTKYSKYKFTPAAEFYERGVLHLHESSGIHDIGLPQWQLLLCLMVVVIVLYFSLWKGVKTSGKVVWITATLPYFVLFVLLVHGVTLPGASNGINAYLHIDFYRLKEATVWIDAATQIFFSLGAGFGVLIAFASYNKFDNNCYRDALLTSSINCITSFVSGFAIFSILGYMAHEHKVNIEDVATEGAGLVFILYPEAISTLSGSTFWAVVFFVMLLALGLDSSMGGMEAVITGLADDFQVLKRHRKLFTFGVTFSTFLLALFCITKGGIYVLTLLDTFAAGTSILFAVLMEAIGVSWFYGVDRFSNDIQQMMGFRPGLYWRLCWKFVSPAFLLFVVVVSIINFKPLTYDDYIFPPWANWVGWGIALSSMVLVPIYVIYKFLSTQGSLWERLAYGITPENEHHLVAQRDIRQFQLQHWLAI
Motilin receptor, sequence (O43193 whole entry): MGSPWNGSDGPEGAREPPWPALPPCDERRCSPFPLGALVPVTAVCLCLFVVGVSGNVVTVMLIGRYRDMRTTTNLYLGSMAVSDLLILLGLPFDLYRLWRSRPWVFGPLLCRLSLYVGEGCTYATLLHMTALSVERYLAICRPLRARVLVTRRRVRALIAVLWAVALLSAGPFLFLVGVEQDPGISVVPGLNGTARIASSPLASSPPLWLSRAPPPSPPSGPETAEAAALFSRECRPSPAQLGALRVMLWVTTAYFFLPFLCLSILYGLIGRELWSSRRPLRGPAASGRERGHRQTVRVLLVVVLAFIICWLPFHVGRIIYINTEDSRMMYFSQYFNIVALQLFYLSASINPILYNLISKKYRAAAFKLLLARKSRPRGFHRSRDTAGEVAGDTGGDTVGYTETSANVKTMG
Delta-type opioid receptor, sequence (P41143 whole entry): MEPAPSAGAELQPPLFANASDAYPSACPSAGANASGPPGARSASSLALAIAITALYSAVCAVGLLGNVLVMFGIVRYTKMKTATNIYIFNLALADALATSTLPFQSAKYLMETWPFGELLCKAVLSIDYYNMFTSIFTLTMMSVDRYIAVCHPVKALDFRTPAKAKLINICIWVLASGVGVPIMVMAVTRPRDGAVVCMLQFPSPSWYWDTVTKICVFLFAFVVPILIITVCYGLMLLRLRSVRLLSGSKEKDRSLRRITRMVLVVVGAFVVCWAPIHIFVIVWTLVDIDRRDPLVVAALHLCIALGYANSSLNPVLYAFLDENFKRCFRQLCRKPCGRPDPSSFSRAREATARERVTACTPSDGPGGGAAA

Compound	AC50 [1]	AC50 (Motilin receptor)	AC50 [2]	AC50 [3]	AC50 [4]	AC50 [5]	AC50 [6]	AC50 [7]	AC50 (Thromboxane A2 receptor)	AC50 [8]	AC50 [9]
C=CCNc1nc(NCC=C)nc(N2CCN(C(c3ccc(F)cc3)c3ccc(F)cc3)CC2)n1 [ALMITRINE]	> 30 µM	> 30 µM	> 30 µM	> 30 µM	> 30 µM	> 30 µM	> 30 µM	> 30 µM	> 30 µM	> 30 µM	> 30 µM
CC(CCc1ccc(O)cc1)NCCc1ccc(O)c(O)c1 (stereo not given) [DOBUTAMINE]	> 30 µM	> 30 µM	5.31 µM	1.73 µM	> 30 µM	> 30 µM	> 30 µM	> 30 µM	> 30 µM	0.897 µM	> 30 µM
CCOC(=O)C1=C[C@]2(CC)CCCN3CCc4c(n1c1ccccc41)[C@@H]32 [VINPOCETINE]	13 µM	> 30 µM	> 30 µM	> 30 µM	> 30 µM	> 30 µM	> 30 µM	> 30 µM	> 30 µM	21 µM	> 30 µM
CC1(C)S[C@@H]2[C@H](NC(=O)[C@H](N)c3ccccc3)C(=O)N2[C@H]1C(=O)OCOC(=O)[C@@H]1N2C(=O)C[C@H]2S(=O)(=O)C1(C)C [SULTAMICILLIN]	> 30 µM	> 30 µM	> 30 µM	> 30 µM	> 30 µM	> 30 µM	> 30 µM	> 30 µM	> 30 µM	> 30 µM	> 30 µM
CCC(=O)O[C@]1(C(=O)SCF)[C@H](C)C[C@H]2[C@@H]3C[C@H](F)C4=CC(=O)C=C[C@]4(C)[C@@]3(F)[C@@H](O)C[C@@]21C [FLUTICASONE PROPIONATE]	> 30 µM	> 30 µM	> 30 µM	> 30 µM	> 30 µM	> 30 µM	> 30 µM	> 30 µM	> 30 µM	> 30 µM	> 30 µM
CC(C(=O)O)c1ccc(-c2ccccc2)c(F)c1 (stereo not given) [FLURBIPROFEN]	> 10 µM	> 10 µM	11 µM	> 10 µM	> 10 µM	> 10 µM	> 30 µM	> 10 µM	> 10 µM	> 10 µM	> 10 µM
CC(C)[C@H](N)C(=O)OCC(CO)OCn1cnc2c(=O)nc(N)[nH]c21 (stereo not given in full) [VALGANCICLOVIR]	> 30 µM	> 30 µM	> 30 µM	> 30 µM	> 30 µM	> 30 µM	> 30 µM	> 30 µM	> 30 µM	> 30 µM	> 30 µM
COc1cc(N)c(Cl)cc1C(=O)NC1CCN(Cc2ccccc2)CC1 [CLEBOPRIDE]	> 30 µM	> 30 µM	14 µM	15 µM	> 30 µM	> 30 µM	> 30 µM	> 30 µM	> 30 µM	22 µM	> 30 µM
CC1OC2(CS1)CN1CCC2CC1 (stereo not given) [CEVIMELINE]	3.03 µM	> 10 µM	> 10 µM	> 10 µM	> 10 µM	> 10 µM	> 30 µM	> 10 µM	> 10 µM	> 10 µM	> 10 µM
C#C[C@]1(OC(C)=O)CC[C@H]2[C@@H]3CCC4=C/C(=N/O)CC[C@@H]4[C@H]3CC[C@@]21CC [NORGESTIMATE]	> 30 µM	> 30 µM	7.8 µM	28 µM	> 30 µM	> 30 µM	> 30 µM	> 30 µM	> 30 µM	10 µM	22 µM
Cc1noc(NS(=O)(=O)c2ccc(N)cc2)c1C [SULFISOXAZOLE]	> 10 µM	> 10 µM	> 10 µM	> 10 µM	> 10 µM	> 10 µM	> 30 µM	> 10 µM	> 10 µM	> 10 µM	> 10 µM
CC(N)C(O)c1ccccc1 (stereo not given) [PHENYLPROPANOLAMINE]	> 10 µM	> 10 µM	> 30 µM	> 30 µM	> 10 µM	> 30 µM	> 10 µM	> 30 µM	> 30 µM	> 30 µM	> 30 µM
C[C@H](Cc1ccc(O)c(O)c1)[C@@H](C)Cc1ccc(O)c(O)c1 [MASOPROCOL]	> 30 µM	> 10 µM	18 µM and 14 µM and 12 µM	20.6 µM and 20 µM (2×)	> 10 µM	> 10 µM	> 30 µM	> 30 µM	> 10 µM and 29 µM (2×)	3.4 µM and 5.4 µM and 5.2 µM	> 10 µM
CCOC(=O)C1=C(C)NC(C)=C(C(=O)OC)C1c1cccc([N+](=O)[O-])c1 (stereo not given) [NITRENDIPINE]	> 10 µM	> 10 µM	> 30 µM	> 30 µM	> 10 µM	> 30 µM	> 30 µM	15.9 µM	> 30 µM	32.2 µM	> 30 µM
CCCN[C@H]1CCc2nc(N)sc2C1 [PRAMIPEXOLE]	> 10 µM	> 10 µM	> 30 µM	> 30 µM	> 10 µM	> 30 µM	> 30 µM	> 30 µM	> 30 µM	> 30 µM	> 30 µM
